According to patent US20050170004A1, “Nanoparticles for drug delivery” (priority 2003, published 2005):

What was measured:
[1] = tested on: EAE in the Lewis rat model; test: Efficacy in rat experimental autoimmune encephalomyelitis (EAE); assay type: in vivo; settings: for % of inhibition vs. DDW: inhibition of group mean score
Text: In this experiment the goal was to reduce experimental autoimmune encephalomyelitis (EAE) induced clinical signs in the Lewis rat model. Lewis (LEW) rats are highly susceptible to EAE induced with guinea pig spinal cord homogenate (GPSCH) emulsified in modified complete Freund's adjuvant (CFA). […] Decreased signs of EAE in rats with test materials administered orally during the study is considered a protective effect set forth by the experimental design.
The animal were induced with the disease by subcutaneous injection of GPSCH emulsion into both hind paws on day 1.
Initiation of scoring of rats for EAE clinical signs started on day 9. The treatment groups were blinded to the scorer. The treatments or control treatments were started on day 1 and administered daily to day 22. Treatments were administered by oral gavage at a dose and frequency described in Table 2.
There were ten rats in each group.
The animals were accessed daily for EAE clinical signs as described in Table 3.
The number of sick animals in each group were assessed. The day of onset of the symptoms, the duration of days of the symptoms and the number of animals dying were noted and the percentages calculated.
The maximal scores of each of the animals in each group were summed. The mean maximal score of the group was calculated as follows: […]
Σ Maximal score of each rat/number of rats in the group.
The scores of each of the animals in the group were summed and the mean score per day was calculated. The group mean score was calculated as follows: • Σ Total score of each rat per day/number of rats in the group. Results

[2] = tested on: multiple sclerosis; settings: cited from earlier work
[3] = tested on: pancreatin; test: Protection from enzymatic degradation by pancreatin; assay type: in vitro ADME; settings: pancreatin:GA 1:10, 37° C., phosphate buffer pH 6.8
Procedure: The enzymatic degradation of free GA in solution versus GA in the nano suspension (˜50% bound to the nanoparticles) and versus GA bound to the nanoparticles (˜100% bound) was studied using pancreatin. The GA bound to the nanoparticles was prepared by collecting fractions from the void volume of the Sephadex column as described in Example 1 and pooling the samples. Pancreatin is a mixture of pancreatic proteases consisting of trypsin and chymotrypsins.
Pancreatin 3.5 mg was dissolved in 10 ml of 0.05M phosphate buffer pH=6.8. Free GA, GA in nano suspension, or fully bound GA, 35 mg as GA, was dissolved or suspended in 10 ml of 0.05M phosphate buffer pH=6.8. 1 ml of the pancreatin solution and 1 ml of the GA solution or suspension were mixed (the ratio of pancreatin to GA was fixed at 1:10) and held at 37° C. At fixed time points the enzymatic reaction was stopped by adding 0.4 ml of 1N HCl. The residual GA content of the mixture was determined by the HPLC method described in Example 1.

[4] = tested on: spleen cells of mice; test: Immunologic activity ex-vivo in mice: cytokine secretion from splenocytes activated with GA RS (ELISA); settings: mice fed daily 250 μg GA equivalent; throughout the test period
Procedure: The ability of GA-Wax-PVP to elicit an immune response with a similar cytokine pattern as glatiramer acetate solution was tested in an ex-vivo model in mice. The study was conducted over a period of 10 days. Mice were fed daily with GA reference standard (GA RS, 250 μg), GA-Wax-PVP (amount equivalent to 250 μg GA) or Wax-PVP as negative control (similar volume and weight of particles as GA-Wax-PVP). During the study period, subsets of animals in each treatment group were sacrificed on days 3, 6 and 10. Spleens were excised and primary cell cultures were prepared. The effect of the treatment was tested by in-vitro activation of splenocytes with GA RS. The response of the cells to the challenge is a measure of previous exposure to GA. Comparing the immune response of the mice fed GA-Wax-PVP to those fed GA RS gives a measure of the relative exposure to GA that each treatment provided. T-cell response was monitored by detection of cytokines secreted from activated cells by ELISA analysis. The levels of IL-2, TGF-β, IL-4, IL-5, IL-10 and IFN-γ were examined.

[5] = daily oral gavage day 1-22, 2.5 mg GA/ml, 5 ml/kg

Glatiramer acetate [GA]
Group Mean Score ([1]; EAE clinical score 0-6): 0.67 ± 0.4
Mean Maximal Score ([1]; EAE clinical score 0-6): 2.2 ± 1.1
Incidence % [1, 5]: 89%
Incidence Total N [1, 5]: 8/9
Mean Disease Duration [1, 5]: 3.2 ± 1.6 days
Mean Onset [1, 5]: 13.0 ± 2.5 days
Mortality % [1, 5]: 0%
Mortality Total N [1, 5]: 0/10
Incidence Total N ([1]; daily oral gavage day 1-22, 2.5 mg GA/ml, 5 ml/kg, listed as Glatiramer acetate oral solution): eight of nine
Daily Mean Score ([1]; day 9, EAE clinical score 0-6): 0.0
Daily Mean Score ([1]; day 10, EAE clinical score 0-6): 0.0
Daily Mean Score ([1]; day 11, EAE clinical score 0-6): 0.2
Daily Mean Score ([1]; day 12, EAE clinical score 0-6): 1.3
Daily Mean Score ([1]; day 13, EAE clinical score 0-6): 2.0
Daily Mean Score ([1]; day 14, EAE clinical score 0-6): 1.8
Daily Mean Score ([1]; day 15, EAE clinical score 0-6): 1.2
Daily Mean Score ([1]; day 16, EAE clinical score 0-6): 0.1
Daily Mean Score ([1]; day 17, EAE clinical score 0-6): 0.0
Daily Mean Score ([1]; day 18, EAE clinical score 0-6): 0.0
AUC of daily mean score ([1]; days 9-18): 6.6
% of inhibition vs. DDW [1]: 38%
% of inhibition vs. DDW ([1]; listed as glatiramer acetate oral solution): 38%
effect on disease severity of EAE (conclusion) ([1]; oral administration, in words): inhibit the disease severity of EAE in rats
clinical benefits for MS patients ([2]; 20 mg subcutaneous daily injection): extended clinical benefits
burden of disease lesions in magnetic resonance imaging measures ([2]; literature review): significantly reduce
relapse rate of multiple sclerosis ([2]; literature review): significantly reduce
percent residual GA ([3]; 0 min): 100.0 +/− 0.0%
percent residual GA ([3]; 1 min): 75.1 +/− 3.9%
percent residual GA ([3]; 2 min): 63.4 +/− 4.8%
percent residual GA ([3]; 3 min, listed as Free GA, 3 min): 56.3 +/− 4.7%
percent residual GA ([3]; 3 min, listed as free GA): 56%
percent residual GA ([3]; 6 min): 47.1 +/− 4.4%
levels of all the cytokines examined (IL-2, TGF-β, IL-4, IL-5, IL-10, IFN-γ) [4]: similar
